Measured values taken from article PMC12463058, “SF3A3 Drives Tumorigenesis in Endometrial Cancer by Enhancing c‐FOS Expression and Represents a Potential Therapeutic Target” (Advanced Science, 2025).

Biological target: T1, splicing factor 3A subunit 3 (SF3A3) (Homo sapiens, UniProt Q12874)
T1 sequence (Q12874 1-501): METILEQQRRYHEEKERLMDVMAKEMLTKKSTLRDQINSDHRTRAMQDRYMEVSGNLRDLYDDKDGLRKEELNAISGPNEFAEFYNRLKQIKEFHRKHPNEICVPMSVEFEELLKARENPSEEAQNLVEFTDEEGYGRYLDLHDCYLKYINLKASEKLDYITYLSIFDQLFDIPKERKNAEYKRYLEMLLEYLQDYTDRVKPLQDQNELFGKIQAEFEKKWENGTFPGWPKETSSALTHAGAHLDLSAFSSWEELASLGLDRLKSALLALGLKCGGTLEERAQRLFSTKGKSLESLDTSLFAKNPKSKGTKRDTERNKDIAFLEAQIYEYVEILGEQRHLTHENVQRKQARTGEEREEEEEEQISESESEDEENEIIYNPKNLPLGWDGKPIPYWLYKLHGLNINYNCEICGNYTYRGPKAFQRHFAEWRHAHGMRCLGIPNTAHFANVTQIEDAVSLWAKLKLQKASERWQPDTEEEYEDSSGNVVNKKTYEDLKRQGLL
Test: SPR (Biacore 8K, immobilized purified human SF3A3, steady-state affinity); supported by pulldown mass spectrometry
Format: binding

With `S=C=NCCc1ccccc1` [PEITC] as the compound, how does the Kd read?
Its Kd is 10.1 µM.
